Assay results published in US11236046B2, “Substituted heterocyclic sulfonamide compounds useful as TRPA1 modulators” (Genentech, Inc., priority 2013, dated 2022).

Molecular target: human TRPA1 (Homo sapiens (Human), UniProt O75762)
Experiment: FLIPR Tetra calcium influx assay, block of cinnamaldehyde-induced calcium influx in CHO cells expressing TRPA1 (human)
Type: cell-based
Settings: 20 min compound incubation, 75 uM cinnamaldehyde (~EC80), Hill coefficient fixed to 1.5, read-out: hTRPA1 AUC IC50
Method in brief: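 CHO cells loaded with calcium dye, preincubated with compounds 20 min at room temperature in HBSS/20 mM HEPES pH 7.4 with 0.02% BSA. Channels activated by ~EC80 cinnamaldehyde (75 uM human, 45 uM rat); block of calcium influx read on FLIPR Tetra, IC50 fitted with fixed Hill coefficient.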

Sequence of human TRPA1 (O75762 whole entry): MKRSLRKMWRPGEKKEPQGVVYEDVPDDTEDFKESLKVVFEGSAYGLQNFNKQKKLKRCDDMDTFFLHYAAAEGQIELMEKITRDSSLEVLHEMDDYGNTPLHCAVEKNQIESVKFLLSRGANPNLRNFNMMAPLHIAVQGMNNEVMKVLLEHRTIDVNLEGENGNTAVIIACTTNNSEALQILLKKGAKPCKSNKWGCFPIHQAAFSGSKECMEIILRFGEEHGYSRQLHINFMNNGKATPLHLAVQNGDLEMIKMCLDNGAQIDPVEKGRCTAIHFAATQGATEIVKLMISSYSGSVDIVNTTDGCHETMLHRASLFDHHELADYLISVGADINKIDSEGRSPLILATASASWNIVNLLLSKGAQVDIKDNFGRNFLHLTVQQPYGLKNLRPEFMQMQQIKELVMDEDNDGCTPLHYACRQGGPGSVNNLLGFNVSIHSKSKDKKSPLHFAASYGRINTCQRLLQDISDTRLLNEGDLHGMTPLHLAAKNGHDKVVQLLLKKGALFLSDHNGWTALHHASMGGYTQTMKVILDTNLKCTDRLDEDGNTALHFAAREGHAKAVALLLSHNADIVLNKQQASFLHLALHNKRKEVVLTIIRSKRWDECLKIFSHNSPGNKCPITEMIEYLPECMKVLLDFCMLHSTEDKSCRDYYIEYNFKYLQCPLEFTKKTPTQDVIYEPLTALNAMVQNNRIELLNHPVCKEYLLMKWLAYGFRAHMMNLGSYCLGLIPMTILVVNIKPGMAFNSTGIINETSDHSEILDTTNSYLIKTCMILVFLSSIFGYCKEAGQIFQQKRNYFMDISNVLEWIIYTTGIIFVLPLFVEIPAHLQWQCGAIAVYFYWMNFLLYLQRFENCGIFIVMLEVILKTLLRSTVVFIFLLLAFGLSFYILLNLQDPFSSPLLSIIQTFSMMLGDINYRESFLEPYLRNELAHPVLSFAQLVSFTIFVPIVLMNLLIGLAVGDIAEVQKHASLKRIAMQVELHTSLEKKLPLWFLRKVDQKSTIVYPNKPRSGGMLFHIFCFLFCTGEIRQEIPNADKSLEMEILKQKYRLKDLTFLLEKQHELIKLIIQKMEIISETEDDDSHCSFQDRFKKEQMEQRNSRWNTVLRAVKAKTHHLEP

With `O=C(NCc1cc(F)cc(-c2ccc(C(F)(F)F)nn2)c1)[C@@H]1C[C@@H](F)CN1S(=O)(=O)c1ccc(F)cc1` [Example 89, (2S,4R)-4-fluoro-1-(4-fluorophenyl)sulfonyl-N-[[3-fluoro-5-[6-(trifluoromethyl)pyridazin-3-yl]phenyl]methyl]pyrrolidine-2-carboxamide] the IC50 was 20 nM.

Compound `Cc1nc(CNC(=O)[C@@H]2C[C@@H](F)CN2S(=O)(=O)c2ccc(F)cc2)cc(-c2ccc(C(F)(F)F)nc2)n1` [Example 152, (2S,4R)-4-fluoro-1-(4-fluorophenylsulfonyl)-N-((2-methyl-6-(6-(trifluoromethyl)pyridin-3-yl)pyrimidin-4-yl)methyl)pyrrolidine-2-carboxamide] has an IC50 of 163 nM.

`C[C@H]1CC[C@@H](C(=O)NCc2ccnc(-c3cnc(C(F)(F)F)nc3)c2)N1S(=O)(=O)c1ccc(F)cc1` [Example 186, (2S,5S)-1-(4-fluorophenylsulfonyl)-5-methyl-N-((2-(2-(trifluoromethyl)pyrimidin-5-yl)pyridin-4-yl)methyl)pyrrolidine-2-carboxamide] showed an IC50 of 4 nM.

For `O=C(NCc1cc(-c2ccc(C(F)(F)F)nc2)ncn1)[C@@H]1[C@@H](F)CCN1S(=O)(=O)c1ccc(F)cc1` [Example 136, (2R,3S)-3-fluoro-1-(4-fluorophenylsulfonyl)-N-((6-(6-(trifluoromethyl)pyridin-3-yl)pyrimidin-4-yl)methyl)pyrrolidine-2-carboxamide], the IC50 was 21 nM.

`O=C(NCc1cc(-c2cnc(C(F)(F)F)nc2)ccn1)[C@@H]1[C@@H](F)CCN1S(=O)(=O)c1ccc(F)cc1` [Example 157, (2R,3S)-3-fluoro-1-(4-fluorophenyl)sulfonyl-N-[[4-[2-(trifluoromethyl)pyrimidin-5-yl]-2-pyridyl]methyl]pyrrolidine-2-carboxamide] gave an IC50 of 103 nM.

`COc1nc(CNC(=O)[C@@H]2C[C@@H](F)CN2S(=O)(=O)c2ccc(F)cc2)cc(-c2ccc(C(F)(F)F)nc2)n1` [Example 127, (2S,4R)-4-fluoro-1-[(4-fluorobenzene)sulfonyl]-N-([2-methoxy-6-[6-(trifluoromethyl)pyridin-3-yl]pyrimidin-4-yl]methyl)pyrrolidine-2-carboxamide] was tested, and the IC50 was 97 nM.

With `O=C(NCc1cc(F)cc(-c2cnc(C(F)(F)F)nc2)c1)[C@@H]1C[C@@H](F)CN1S(=O)(=O)c1ccc(F)cc1` [Example 91, (2S,4R)-4-fluoro-1-(4-fluorophenyl)sulfonyl-N-[[3-fluoro-5-[2-(trifluoromethyl)pyrimidin-5-yl]phenyl]methyl]pyrrolidine-2-carboxamide] the IC50 was 14 nM.

Work on `O=C(NCc1cc(-c2cnc(C(F)(F)F)nc2)c(Cl)cn1)[C@@H]1C[C@@H](F)CN1S(=O)(=O)c1ccc(F)cc1` [Example 192, (2S,4R)—N-([5-chloro-4-[2-(trifluoromethyl)pyrimidin-5-yl]pyridin-2-yl]methyl)-4-fluoro-1-[(4-fluorobenzene)sulfonyl]pyrrolidine-2-carboxamide] yielded an IC50 of 42 nM.

Compound `O=C(NCc1cc(-c2ccc(C(F)(F)F)cc2)ncn1)[C@@H]1C[C@@H](F)CN1S(=O)(=O)c1ccc(F)cc1` [Example 143, (2S,4R)-4-fluoro-1-(4-fluorophenylsulfonyl)-N-((6-(4-(trifluoromethyl)phenyl)pyrimidin-4-yl)methyl)pyrrolidine-2-carboxamide] has an IC50 of 15 nM.

`O=C(NCc1cc(-c2cnc(C(F)(F)F)nc2)c(F)cn1)[C@@H]1C[C@@H](F)CN1S(=O)(=O)c1ccc(F)cc1` [Example 167, (2S,4R)-4-fluoro-N-((5-fluoro-4-(2-(trifluoromethyl)pyrimidin-5-yl)pyridin-2-yl)methyl)-1-(4-fluorophenylsulfonyl)pyrrolidine-2-carboxamide] was tested, and the IC50 was 38 nM.

Work on `O=C(NCc1cc(-c2cnc(C(F)(F)F)nc2)cnc1F)[C@@H]1C[C@@H](F)CN1S(=O)(=O)c1ccc(F)cc1` [Example 171, (2S,4R)-4-fluoro-1-(4-fluorophenyl)sulfonyl-N-[[2-fluoro-5-[2-(trifluoromethyl)pyrimidin-5-yl]-3-pyridyl]methyl]pyrrolidine-2-carboxamide] yielded an IC50 of 211 nM.
